Molecular target: T1, bacteriophage T4 DNA polymerase (Enterobacteria phage T4, UniProt P04415)
T1 construct: made in house
T1 sequence (P04415 1-898): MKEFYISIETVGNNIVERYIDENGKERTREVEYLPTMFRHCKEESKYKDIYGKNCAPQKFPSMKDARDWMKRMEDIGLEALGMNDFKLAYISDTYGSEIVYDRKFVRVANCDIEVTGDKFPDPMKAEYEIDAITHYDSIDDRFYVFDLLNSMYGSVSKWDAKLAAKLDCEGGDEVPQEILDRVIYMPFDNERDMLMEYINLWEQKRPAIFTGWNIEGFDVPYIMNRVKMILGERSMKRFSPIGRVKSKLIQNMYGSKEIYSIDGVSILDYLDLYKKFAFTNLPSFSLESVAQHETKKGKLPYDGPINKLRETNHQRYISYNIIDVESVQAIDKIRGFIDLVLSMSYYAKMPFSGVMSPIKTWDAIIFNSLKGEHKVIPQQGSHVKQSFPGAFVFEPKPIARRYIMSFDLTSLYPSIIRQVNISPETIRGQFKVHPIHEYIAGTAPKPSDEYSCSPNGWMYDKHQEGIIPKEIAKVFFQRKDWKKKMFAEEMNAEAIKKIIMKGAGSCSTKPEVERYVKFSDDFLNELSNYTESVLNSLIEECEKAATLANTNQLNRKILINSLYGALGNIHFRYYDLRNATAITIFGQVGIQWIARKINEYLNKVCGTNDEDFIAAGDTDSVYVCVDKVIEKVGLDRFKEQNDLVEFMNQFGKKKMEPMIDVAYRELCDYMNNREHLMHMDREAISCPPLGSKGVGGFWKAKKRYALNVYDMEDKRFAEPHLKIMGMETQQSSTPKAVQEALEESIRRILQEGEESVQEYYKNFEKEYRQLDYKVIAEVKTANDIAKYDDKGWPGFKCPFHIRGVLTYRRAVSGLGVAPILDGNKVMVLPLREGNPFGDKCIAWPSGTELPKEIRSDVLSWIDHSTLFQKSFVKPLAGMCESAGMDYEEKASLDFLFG
Test: Counter-screen against bacteriophage T4 DNA polymerase
Assay type: biochemical
Conditions: for % inhibition T4 10' 2.5 / % inhibition T4 10' 5 / % inhibition T4 10' 10 / % inhibition T4 10' 20 / % inhibition T4 10' 40 / % inhibition T4 10' 80: read at 10'; for % inhibition T4 70' 2.5 / % inhibition T4 70' 5 / % inhibition T4 70' 10 / % inhibition T4 70' 20 / % inhibition T4 70' 40 / % inhibition T4 70' 80: read at 70'; for % inhibition T4 130' 2.5 / % inhibition T4 130' 5 / % inhibition T4 130' 10 / % inhibition T4 130' 20 / % inhibition T4 130' 40 / % inhibition T4 130' 80: read at 130'; for % inhibition T4 40' 2.5 / % inhibition T4 40' 5 / % inhibition T4 40' 10 / % inhibition T4 40' 20 / % inhibition T4 40' 40 / % inhibition T4 40' 80: read at 40'; for % inhibition T4 90' 2.5 / % inhibition T4 90' 5 / % inhibition T4 90' 10 / % inhibition T4 90' 20 / % inhibition T4 90' 40 / % inhibition T4 90' 80: read at 90'; for % inhibition T4 180' 2.5 / % inhibition T4 180' 5 / % inhibition T4 180' 10 / % inhibition T4 180' 20 / % inhibition T4 180' 40 / % inhibition T4 180' 80: read at 180'
Description: Codon-optimized, exonuclease-deficient Pf-apPOL was overexpressed in E. coli BL21 (DE3) and purified as described. The protein was dialysed against two, 1-liter changes of 20 mM Tris-HCl (pH 8.0), 400 mM NaCl, and 20% glycerol. Plasmodium bergei and Babesia bovis apPOLs (Pb-apPOL and Bb-apPOL, respectively) were codon-optimized, expressed, and purified as for Pf-apPOL[15]. Bacteriophage T4 DNA polymerase was purified as described. The DNA oligonucleotides used to make the high-throughput substrate were obtained from Integrated DNA Technologies. Deoxynucleotides were purchased from Strategene. All other materials came from Fisher Scientific.
Each compound was tested in a dose-response format to determine IC50 values. […] T4 DNA polymerase can be produced in large quantities, and is in the same family (B-family) as the replicative human DNA polymerases (α, δ, and ε)[20].

## CC(=O)c1cc2c(N)c(/C(N)=N/C#N)sc2nc1C [KU0015866]
DRC-2, concentration 2.5
  % inhibition T4 10': -16%
  % inhibition T4 40': -16%
  % inhibition T4 180': -20%
DRC-2, concentration 5
  % inhibition T4 10': -17%
  % inhibition T4 40': -17%
  % inhibition T4 90': -16%
  % inhibition T4 180': -23%
DRC-2, concentration 10
  % inhibition T4 10': -18%
  % inhibition T4 40': -18%
  % inhibition T4 90': -18%
DRC-2, concentration 20
  % inhibition T4 10': -17%
  % inhibition T4 40': -17%
  % inhibition T4 90': -18%
  % inhibition T4 180': -23%
DRC-2, concentration 40
  % inhibition T4 10': -11%
  % inhibition T4 40': -11%
  % inhibition T4 90': -11%
  % inhibition T4 180': -16%
DRC-2, concentration 80
  % inhibition T4 10': -21%
  % inhibition T4 40': -21%
  % inhibition T4 90': -20%

## COc1ccccc1CC(=O)N1CCc2c(nc3cc(-c4ccccc4Cl)[nH]n3c2=O)C1 [Molecule 49, COc1ccccc1CC(=O)N1CCc2c(C1)nc1n(c2=O)[nH]c(c1)c1ccccc1Cl]
DRC-1, concentration 2.5
  % inhibition T4 10' 2.5: -1.17%
  % inhibition T4 70' 2.5: -2.29%
  % inhibition T4 130' 2.5: -4%
DRC-1, concentration 5
  % inhibition T4 10' 5: -4%
  % inhibition T4 70' 5: -6%
  % inhibition T4 130' 5: -6%
DRC-1, concentration 10
  % inhibition T4 10' 10: -5.62%
  % inhibition T4 70' 10: -6%
  % inhibition T4 130' 10: -5%
DRC-1, concentration 20
  % inhibition T4 10' 20: -14%
  % inhibition T4 70' 20: -13%
  % inhibition T4 130' 20: -12%
DRC-1, concentration 40
  % inhibition T4 10' 40: -19%
  % inhibition T4 70' 40: -18%
  % inhibition T4 130' 40: -13%
DRC-1, concentration 80
  % inhibition T4 10' 80: -3%
  % inhibition T4 70' 80: -7%
  % inhibition T4 130' 80: -11%
DRC-2, concentration 2.5
  % inhibition T4 10' 2.5: -1%
  % inhibition T4 40' 2.5: -2.7%
  % inhibition T4 90' 2.5: -4%
  % inhibition T4 180' 2.5: -9%
DRC-2, concentration 5
  % inhibition T4 10' 5: -28%
  % inhibition T4 40' 5: -24%
  % inhibition T4 90' 5: -22%
  % inhibition T4 180' 5: -24%
DRC-2, concentration 10
  % inhibition T4 10' 10: -40%
  % inhibition T4 40' 10: -34%
  % inhibition T4 90' 10: -31%
  % inhibition T4 180' 10: -28%
DRC-2, concentration 20
  % inhibition T4 10' 20: -50%
  % inhibition T4 40' 20: -45%
  % inhibition T4 90' 20: -41%
  % inhibition T4 180' 20: -39%
DRC-2, concentration 40
  % inhibition T4 10' 40: -55%
  % inhibition T4 40' 40: -51%
  % inhibition T4 90' 40: -49%
  % inhibition T4 180' 40: -47%
DRC-2, concentration 80
  % inhibition T4 10' 80: -54%
  % inhibition T4 40' 80: -47%
  % inhibition T4 90' 80: -47%
  % inhibition T4 180' 80: -46%

## O=C(CSc1nnc(-c2ccco2)[nH]1)c1ccc(Cl)cc1 [KU0029065]
DRC-2, concentration 10
  % inhibition T4 40': 3%
  % inhibition T4 180': -2%
DRC-2, concentration 40
  % inhibition T4 40': -2%
DRC-2, concentration 2.5
  % inhibition T4 90': -13%
  % inhibition T4 180': -13%
DRC-2, concentration 20
  % inhibition T4 90': 3%

## CCCc1ccc(Oc2coc3cc(OC)ccc3c2=O)cc1 [KU0193249]
DRC-1, concentration 2.5
  % inhibition T4 10' 2.5: 1.7455%
  % inhibition T4 70' 2.5: 0.7287%
  % inhibition T4 130' 2.5: -0.4639%
DRC-1, concentration 5
  % inhibition T4 10' 5: -0.5189%
  % inhibition T4 70' 5: -0.7228%
  % inhibition T4 130' 5: -1.759%
DRC-1, concentration 10
  % inhibition T4 10' 10: 7.431%
  % inhibition T4 70' 10: 6.283%
  % inhibition T4 130' 10: 5.142%
DRC-1, concentration 20
  % inhibition T4 10' 20: -2.718%
  % inhibition T4 70' 20: -2.8267%
  % inhibition T4 130' 20: -2.066%
DRC-1, concentration 40
  % inhibition T4 10' 40: 4.024%
  % inhibition T4 70' 40: 4.61%
  % inhibition T4 130' 40: 4.723%
DRC-1, concentration 80
  % inhibition T4 10' 80: -14.455%
  % inhibition T4 70' 80: -10.3998%
  % inhibition T4 130' 80: -9.229%
DRC-2, concentration 2.5
  % inhibition T4 10' 2.5: 9%
  % inhibition T4 40' 2.5: 9%
  % inhibition T4 90' 2.5: 8%
  % inhibition T4 180' 2.5: 1.43%
DRC-2, concentration 5
  % inhibition T4 10' 5: -2.34%
  % inhibition T4 40' 5: -2.34%
  % inhibition T4 90' 5: -2.2%
  % inhibition T4 180' 5: -7%
DRC-2, concentration 10
  % inhibition T4 10' 10: 0.369%
  % inhibition T4 40' 10: 0.369%
  % inhibition T4 90' 10: -0.214%
  % inhibition T4 180' 10: -5%
DRC-2, concentration 20
  % inhibition T4 10' 20: -9%
  % inhibition T4 40' 20: -9%
  % inhibition T4 90' 20: -7%
  % inhibition T4 180' 20: -10%
DRC-2, concentration 40
  % inhibition T4 10' 40: -1.47%
  % inhibition T4 40' 40: -1.47%
  % inhibition T4 90' 40: 0.714%
  % inhibition T4 180' 40: -1.19%
DRC-2, concentration 80
  % inhibition T4 10' 80: -4.57%
  % inhibition T4 40' 80: -4.57%
  % inhibition T4 90' 80: -1.8%
  % inhibition T4 180' 80: -4%

Source: PMC9090415, “Discovery of small molecule inhibitors of Plasmodium falciparum apicoplast DNA polymerase” (Journal of Enzyme Inhibition and Medicinal Chemistry, 2022)
